In brackets after ≈: the same amount, converted by molar mass. Activity calls are given as the source filed them. The calls are words filed in the database; no cut-off is given here.
Columns and labels:
Staphylococcus aureus = experiment: Antibacterial activity against Staphylococcus aureus by middle-brook 7H10 agar proportion method; assay type: functional, organism-based
Escherichia coli = experiment: Antibacterial activity against Escherichia coli by middle-brook 7H10 agar proportion method; assay type: functional, organism-based
[1] = tested on: Mycobacterium tuberculosis; experiment: Antimycobacterial activity against Mycobacterium tuberculosis by middle-brook 7H10 agar proportion method; assay type: functional
Mus musculus = experiment: Toxicity in mouse at 10 mg/kg, ip; assay type: organism-based; set-up: dose 10 mg/kg, route intraperitoneal; settings: in vivo
[2] = tested on: Mycobacterium avium-intracellulare; experiment: Antimycobacterial activity against Mycobacterium avium-intracellulare by middle-brook 7H10 agar proportion method; assay type: functional

| SMILES | Activity (Staphylococcus aureus) | Activity (Escherichia coli) | MIC [1] | Activity (Mus musculus) | MIC [2] |
| --- | --- | --- | --- | --- | --- |
| CCCCCCC[C@H](O)CC(=O)N[C@@H](CC(C)C)C(=O)N[C@H](CCC(=O)O)C(=O)N[C@H]1C(=O)N[C@H]([C@H](C)CC)C(=O)N[C@@H](CC(C)C)C(=O)N[C@H](CO)C(=O)N[C@@H](CC(C)C)C(=O)N[C@H](CO)C(=O)N[C@@H]([C@H](C)CC)C(=O)O[C@@H]1C | inactive | inactive | – | – | – |
| CCCCCCC[C@H](O)CC(=O)N[C@@H](CC(C)C)C(=O)N[C@H](CCC(=O)O)C(=O)N[C@H]1C(=O)N[C@H]([C@@H](C)CC)C(=O)N[C@@H](CC(C)C)C(=O)N[C@H](CO)C(=O)N[C@@H](CC(C)C)C(=O)N[C@H](CO)C(=O)N[C@@H]([C@@H](C)CC)C(=O)O[C@@H]1C [MASSETOLIDE A] | – | – | 5 µg/mL (≈ 4.38 µM) | Non-toxic | 2.5 µg/mL (≈ 2.19 µM) |

From ChEMBL document CHEMBL1145715, “Massetolides A-H, antimycobacterial cyclic depsipeptides produced by two pseudomonads isolated from marine habitats” (J Nat Prod, 1997)
